ChEMBL document CHEMBL3046449, “Selective Herbicidal Activities of Ethyl 5-(4, 6-Dimethoxypyrimidin-2-ylcarbamoylsulfamoyl)-1-methylpyrazole-4-carboxylate and Its Related Compounds” (J Pestic Sci, 1990)

Assays:
[1] = tested on: Oryza sativa; assay: Effect on Oryza sativa (rice) plant growth in transplanted Oryza sativa field assessed as plant height at 20 g/ha treated after 3 days transplanting; assay type: organism-based; conditions: in vivo, other, 72 h
[2] = tested on: Schoenoplectiella juncoides; assay: Herbicidal activity against Schoenoplectiella juncoides assessed as weed control in transplanted rice field at 30 g/ha treated after 10 days transplanting; assay type: functional
[3] = tested on: Eleocharis kuroguwai; assay: Herbicidal activity against Eleocharis kuroguwai assessed as growth inhibition measured after 2 days by pre-emergence activity assay; assay type: functional
[4] = tested on: Cyperus serotinus; assay: Herbicidal activity against Cyperus serotinus assessed as weed control in transplanted rice field at 20 g/ha treated after 3 days transplanting; assay type: functional
[5] = tested on: Cyperus serotinus; assay: Herbicidal activity against Cyperus serotinus assessed as growth inhibition measured after 2 days by preemergence activity assay; assay type: functional
[6] = tested on: Echinochloa crus-galli; assay: Herbicidal activity against Echinochloa crus-galli (barnyard grass) assessed as weed control in transplanted rice field at 30 g/ha treated after 15 days transplanting; assay type: functional
[7] = Phytotoxicity against Oryza sativa (rice) assessed as growth inhibition under greenhouse at 5 g/ha measured after 18 days by preemergence activity assay; assay type: organism-based; conditions: in vivo, read-out: GI
[8] = tested on: Oryza sativa; assay: Effect on Oryza sativa (rice) plant growth in transplanted Oryza sativa field assessed as number of tillers at 20 g/ha treated after 3 days transplanting; assay type: organism-based; conditions: in vivo, other, 72 h
[9] = tested on: Alisma canaliculatum; assay: Herbicidal activity against three to four-leaf stage Alisma canaliculatum assessed as growth inhibition treated 7 to 15 days after planting measured by post-emergence activity assay; assay type: functional
[10] = tested on: Schoenoplectiella juncoides; assay: Herbicidal activity against Schoenoplectiella juncoides assessed as weed control in transplanted rice field at 20 g/ha treated after 7 days transplanting; assay type: functional
[11] = tested on: Echinochloa crus-galli; assay: Herbicidal activity against Echinochloa crus-galli (barnyard grass) assessed as weed control in transplanted rice field at 30 g/ha treated after 3 days transplanting; assay type: functional
[12] = tested on: Sagittaria pygmaea; assay: Herbicidal activity against Sagittaria pygmaea assessed as weed control in transplanted rice field at 20 g/ha treated after 3 days transplanting; assay type: functional
[13] = tested on: Pontederia vaginalis; assay: Herbicidal activity against Monochoria vaginalis assessed as weed control in transplanted rice field at 20 g/ha treated after 3 days transplanting; assay type: functional
[14] = tested on: unidentified; assay: Herbicidal activity against broadleaf weed assessed as weed control in transplanted rice field at 30 g/ha treated after 3 days transplanting; assay type: functional
[15] = tested on: Oryza sativa; assay: Effect on Oryza sativa (rice) plant growth in transplanted Oryza sativa field assessed as number of tillers at 30 g/ha treated after 15 days transplanting; assay type: organism-based; conditions: in vivo, other, 360 h
[16] = tested on: Cyperus serotinus; assay: Herbicidal activity against Cyperus serotinus assessed as weed control in transplanted rice field at 20 g/ha treated after 7 days transplanting; assay type: functional
[17] = tested on: Pontederia vaginalis; assay: Herbicidal activity against three to five-leaf stage Monochoria vaginalis assessed as growth inhibition treated 7 to 15 days after planting measured by postemergence activity assay; assay type: functional
[18] = tested on: unidentified; assay: Herbicidal activity against broadleaf weed assessed as weed control in transplanted rice field at 30 g/ha treated after 15 days transplanting; assay type: functional
[19] = tested on: Sagittaria pygmaea; assay: Herbicidal activity against Sagittaria pygmaea assessed as weed control in transplanted rice field at 30 g/ha treated after 7 days transplanting; assay type: functional
[20] = tested on: Oryza sativa; assay: Effect on Oryza sativa (rice) plant growth in transplanted Oryza sativa field assessed as plant height at 30 g/ha treated after 15 days transplanting; assay type: organism-based; conditions: in vivo, 360 h
[21] = tested on: Oryza sativa; assay: Effect on Oryza sativa (rice) plant growth in transplanted Oryza sativa field assessed as number of tillers at 20 g/ha treated after 7 days transplanting; assay type: organism-based; conditions: in vivo, other, 168 h
[22] = tested on: Alisma canaliculatum; assay: Herbicidal activity against Alisma canaliculatum assessed as growth inhibition measured after 2 days by pre-emergence activity assay; assay type: functional
[23] = tested on: Pontederia vaginalis; assay: Herbicidal activity against Monochoria vaginalis assessed as weed control in transplanted rice field at 30 g/ha treated after 7 days transplanting; assay type: functional
[24] = tested on: Cyperus serotinus; assay: Herbicidal activity against Cyperus serotinus assessed as weed control in transplanted rice field at 30 g/ha treated after 15 days transplanting; assay type: functional
[25] = tested on: Schoenoplectiella juncoides; assay: Herbicidal activity against two-leaf stage Schoenoplectiella juncoides assessed as growth inhibition treated 7 to 15 days after planting measured by postemergence activity assay; assay type: functional
[26] = tested on: Schoenoplectiella juncoides; assay: Herbicidal activity against Schoenoplectiella juncoides assessed as growth inhibition in paddy condition under greenhouse at 5 g/ha measured after 18 days by preemergence activity assay; assay type: functional; conditions: pre-emergence, 432 h, read-out: GI
[27] = tested on: Echinochloa crus-galli; assay: Herbicidal activity against Echinochloa crus-galli (barnyard grass) assessed as weed control in transplanted rice field at 20 g/ha treated after 3 days transplanting; assay type: functional
[28] = tested on: Schoenoplectiella juncoides; assay: Herbicidal activity against Schoenoplectiella juncoides assessed as growth inhibition measured after 2 days by preemergence activity assay; assay type: functional
[29] = tested on: Oryza sativa; assay: Effect on Oryza sativa (rice) plant growth in transplanted Oryza sativa field assessed as plant height at 30 g/ha treated after 3 days transplanting; assay type: organism-based; conditions: in vivo, other, 72 h
[30] = tested on: Pontederia vaginalis; assay: Herbicidal activity against Monochoria vaginalis assessed as weed control in transplanted rice field at 30 g/ha treated after 15 days transplanting; assay type: functional
[31] = tested on: Pontederia vaginalis; assay: Herbicidal activity against Monochoria vaginalis assessed as weed control in transplanted rice field at 30 g/ha treated after 3 days transplanting; assay type: functional
[32] = tested on: Pontederia vaginalis; assay: Herbicidal activity against Monochoria vaginalis assessed as growth inhibition measured after 2 days by preemergence activity assay; assay type: functional
[33] = tested on: Echinochloa crus-galli; assay: Herbicidal activity against Echinochloa crus-galli (barnyard grass) assessed as weed control in transplanted rice field at 20 g/ha treated after 7 days transplanting; assay type: functional
[34] = tested on: Cyperus serotinus; assay: Herbicidal activity against Cyperus serotinus assessed as weed control in transplanted rice field at 30 g/ha treated after 7 days transplanting; assay type: functional
[35] = tested on: Oryza sativa; assay: Effect on Oryza sativa (rice) plant growth in transplanted Oryza sativa field assessed as plant height at 20 g/ha treated after 7 days transplanting; assay type: organism-based; conditions: in vivo, other, 168 h
[36] = tested on: unidentified; assay: Herbicidal activity against broadleaf weed assessed as weed control in transplanted rice field at 30 g/ha treated after 7 days transplanting; assay type: functional
[37] = tested on: Rotala indica; assay: Herbicidal activity against Rotala indica assessed as growth inhibition in paddy condition under greenhouse at 5 g/ha measured after 18 days by preemergence activity assay; assay type: functional; conditions: pre-emergence, 432 h, read-out: GI
[38] = tested on: Oryza sativa; assay: Effect on Oryza sativa (rice) plant growth in transplanted Oryza sativa field assessed as plant height at 30 g/ha treated after 10 days transplanting; assay type: organism-based; conditions: in vivo, other, 240 h
[39] = tested on: Echinochloa crus-galli; assay: Herbicidal activity against Echinochloa crus-galli (barnyard grass) assessed as weed control in transplanted rice field at 30 g/ha treated after 7 days transplanting; assay type: functional
[40] = tested on: Echinochloa crus-galli; assay: Herbicidal activity against Echinochloa crus-galli (barnyard grass) assessed as growth inhibition in paddy condition under greenhouse at 5 g/ha measured after 18 days by preemergence activity assay; assay type: functional; conditions: pre-emergence, 432 h, read-out: GI
[41] = tested on: Schoenoplectiella juncoides; assay: Herbicidal activity against Schoenoplectiella juncoides assessed as weed control in transplanted rice field at 30 g/ha treated after 15 days transplanting; assay type: functional
[42] = tested on: Eleocharis kuroguwai; assay: Herbicidal activity against Eleocharis kuroguwai assessed as growth inhibition treated 7 to 15 days after planting measured by post-emergence activity assay; assay type: functional
[43] = tested on: Oryza sativa; assay: Effect on Oryza sativa (rice) plant growth in transplanted Oryza sativa field assessed as number of tillers at 30 g/ha treated after 7 days transplanting; assay type: organism-based; conditions: in vivo, other, 168 h
[44] = tested on: Oryza sativa; assay: Effect on Oryza sativa (rice) plant growth in transplanted Oryza sativa field assessed as number of tillers at 30 g/ha treated after 3 days transplanting; assay type: organism-based; conditions: in vivo, other, 72 h
[45] = tested on: Cyperus serotinus; assay: Herbicidal activity against three to four-leaf stage Cyperus serotinus assessed as growth inhibition treated 7 to 15 days after planting measured by postemergence activity assay; assay type: functional

`CCOC(=O)c1cnn(C)c1S(=O)(=O)NC(=O)Nc1nc(OC)cc(OC)n1` [PYRAZOSULFURON ETHYL] showed an Activity [1] of 104%, an Activity [2] of 93% and an I75 [3] of 1.9 gAi/ha. For the same molecule, the Activity [4] was 98%, the I75 [5] was 0.9 gAi/ha and the Activity [6] was 85%. The inhibition at 432 h [7] was less than 5%, the Activity [8] was 100% and the I75 [9] was 1.4 gAi/ha. It also gave an Activity [10] of 100%, an Activity [11] of 97% and an Activity [12] of 95%. The Activity [13] was 100%, the Activity [14] was 100% and the Activity [15] was 105%. For the same molecule, the Activity [16] was 100%, the I75 [17] was 2.7 gAi/ha and the Activity [18] was 100%. The Activity [19] was 98%, the Activity [20] was 101% and the Activity [21] was 96%. The I75 [22] was 2.1 gAi/ha, the Activity [23] was 100% and the Activity [24] was 97%. For the same molecule, the I75 [25] was 13 gAi/ha, the inhibition of growth at 5 g/ha [26] was greater than 90% and the Activity [27] was 98%. The I75 [28] was 8.3 gAi/ha, the Activity [29] was 104% and the Activity [30] was 97%. It also gave an Activity [31] of 100%, an I75 [32] of 2.7 gAi/ha and an Activity [33] of 98%. It also gave an Activity [34] of 100%, an Activity [35] of 107% and an Activity [36] of 100%. The inhibition of growth at 5 g/ha [37] was greater than 90%, the Activity [38] was 102% and the Activity [39] was 98%. It also gave an inhibition of growth at 5 g/ha [40] of 40%, an Activity [41] of 97% and an I75 [42] of 7.4 gAi/ha. The Activity [43] was 100%, the Activity [44] was 99% and the I75 [45] was 1.9 gAi/ha.
